Reference: patent US20090143440A1, “Pyrazoles Useful in the Treatment of Inflammation” (BIOLIPOX AB, priority 2005, published 2009)

Target: T1, purified human 15-lipoxygenase (Homo sapiens, UniProt P16050)
T1 sequence (P16050 1-662): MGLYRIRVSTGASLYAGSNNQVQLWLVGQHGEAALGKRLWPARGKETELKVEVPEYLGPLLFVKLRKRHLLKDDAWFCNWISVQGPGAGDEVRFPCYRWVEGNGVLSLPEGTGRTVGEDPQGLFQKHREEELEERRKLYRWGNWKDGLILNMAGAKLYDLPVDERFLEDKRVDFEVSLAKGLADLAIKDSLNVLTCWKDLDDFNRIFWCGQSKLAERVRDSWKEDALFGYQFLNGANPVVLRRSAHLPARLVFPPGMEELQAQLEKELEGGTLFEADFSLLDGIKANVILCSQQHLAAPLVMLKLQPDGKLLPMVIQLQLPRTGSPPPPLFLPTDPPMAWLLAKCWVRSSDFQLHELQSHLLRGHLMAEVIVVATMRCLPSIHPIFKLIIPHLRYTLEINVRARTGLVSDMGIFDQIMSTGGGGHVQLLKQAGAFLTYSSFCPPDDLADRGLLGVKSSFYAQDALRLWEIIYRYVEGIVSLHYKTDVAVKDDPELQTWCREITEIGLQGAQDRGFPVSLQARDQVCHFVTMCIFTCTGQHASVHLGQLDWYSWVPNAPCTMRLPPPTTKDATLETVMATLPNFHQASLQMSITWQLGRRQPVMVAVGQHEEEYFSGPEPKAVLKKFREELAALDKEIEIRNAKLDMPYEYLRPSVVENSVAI
Experiment: 15-lipoxygenase inhibition assay (arachidonic acid oxidation, HPLC readout)
Type: biochemical
Conditions: arachidonic acid substrate, room temperature, PBS pH 7.4
Experimental: The assay employed takes advantage of the ability of lipoxygenases to oxidize polyunsaturated fatty acids, containing a 1,4-cis-pentadiene configuration, to their corresponding hydroperoxy or hydroxyl derivatives. In this particular assay, the lipoxygenase was a purified human 15-lipoxygenase and the fatty acid was arachidonic acid. The assay is performed at room temperature (20-22° C.) and the following are added to each well in a 96-well microtiter plate:
a) 35 μL phosphate buffered saline (PBS) (pH 7.4); b) inhibitor (i.e. compound) or vehicle (0.5 μl DMSO); c) 10 μL of a 10× concentrated solution of 15-lipoxygenase in PBS. […] The plate is then incubated for 10 minutes at room temperature; e) the enzymatic reaction is terminated by the addition of 100 μl methanol; and f) the amount of 15-hydroperoxy-eicosatetraenoic acid or 15-hydroxy-eicosatetraenoic acid is measured by reverse phase HPLC.

| SMILES | IC50 |
| --- | --- |
| O=C(Nc1ccc(C(F)(F)F)cn1)c1cc(Cl)[nH]n1 [Example 5, 5-Chloro-N-(5-(trifluoromethyl)pyridin-2-yl)pyrazole-3-carboxamide] | 300 nM |
| Cc1nc(NC(=O)c2cc(Cl)[nH]n2)ccc1Br [Example 6, N-(5-bromo-6-methylpyridin-2-yl)-5-chloropyrazole-3-carboxamide] | 320 nM |
| O=C(Nc1ccc(F)cn1)c1n[nH]c(C(F)(F)F)c1Cl [Example 11, 4-Chloro-N-(5-fluoropyridin-2-yl)-5-(trifluoromethyl)pyrazole-3-carboxamide] | 310 nM |
| O=C(Nc1ccc(F)cn1)c1cc(C(F)F)[nH]n1 [Example 13, 5-(Difluoromethyl)-N-(5-fluoropyridin-2-yl)pyrazole-3-carboxamide] | 393 nM |
| O=C(Nc1ccc([N+](=O)[O-])cn1)c1cc(Cl)[nH]n1 [Example 14, 5-Chloro-N-(5-nitropyridin-2-yl)pyrazole-3-carboxamide] | 248 nM |
| COc1ccc(NC(=O)c2cc(Cl)[nH]n2)nc1 [Example 29, 5-Chloro-N-(5-methoxypyridin-2-yl)pyrazole-3-carboxamide] | 122 nM |
| Cc1ccnc(NC(=O)c2cc[nH]n2)c1 [Example 44] | 346 nM |
